Source: patent US10683292B2, “Purine and 3-deazapurine analogues as choline kinase inhibitors” (NERVIANO MEDICAL SCIENCES S.R.L., priority 2016, dated 2020)
Counter-ions that a name gives are not always drawn. Like-named read-outs stand apart in the source and are kept apart here.

Legend:
[1] = target: T1, Δ49N-hChoKα (Homo sapiens, UniProt P35790); assay: Biochemical kinase inhibition assay (Kinase-Glo Luminescent Kinase Assay) on Δ49N-hChoKα
T1 construct: cDNA fragment 362-1534, corresponding to aminoacids 50-457; GST (N, cleaved yes); Prescission Protease recognition site (N, cleaved yes); made in house; host or cells: Escherichia coli BL21pLysS (DE3)
Method: (§1) The biochemical activity of compounds against Δ49N-ChoKα and ChoKβ FL were determined using the Kinase-Glo™ Luminescent Kinase Assay (Promega cat. V6711).
(§2) Compounds were 3-fold serially diluted from 10 to 0.0005 μM, then incubated for 60 minutes at rt in the presence of ATP 5 μM, choline (5 μM for ChoKα and 20 μM for ChoKβ) and enzyme in a final volume of 19 μL of kinase buffer (50 mM Hepes pH 7.5, 10 mM MgCl2, 1 mM DTT, 3 μM Na3VO4 and 0.2 mg/mL BSA). The final concentration of DMSO was 1%.
(§3) At the end of the incubation, an amount of 19 μL of KinaseGlo Reagent was added to each well to stop the reaction and after 30 minutes the luminescence signal was measured using ViewLux reader (Perkin Elmer).
(§4) The data per each molecule are analyzed by an internally customized version of the SW package “Assay Explorer” which provides sigmoidal fittings of the ten-dilution curves for IC50 determination using a 4 parameter logistic equation: y=bottom+(top−bottom)/(1+10^((log IC50−x)*slope)) where x is the logarithm of the inhibitor concentration, y is the response; y starts at bottom and goes to top with a sigmoid shape.

[2] = target: T2, hChoKβ FL (Homo sapiens, UniProt Q9Y259); assay: Biochemical kinase inhibition assay (Kinase-Glo Luminescent Kinase Assay) on hChoKβ FL; conditions: ATP 5 μM, choline 20 μM, 60 minutes at rt; read-out: IC50 ChoKβ
T2 construct: hChoKβ full length (FL), corresponding to aminoacids 2-395; GST (N, cleaved yes); Prescission Protease recognition site (N, cleaved yes); made in house; host or cells: Escherichia coli BL21pLysS (DE3)
Method: as §1, §2, §3, §4

[3] = ATP 5 μM, choline 5 μM, 60 minutes at rt, read-out: IC50 ChoKα

T1 sequence (P35790 50-457, stated change not applied): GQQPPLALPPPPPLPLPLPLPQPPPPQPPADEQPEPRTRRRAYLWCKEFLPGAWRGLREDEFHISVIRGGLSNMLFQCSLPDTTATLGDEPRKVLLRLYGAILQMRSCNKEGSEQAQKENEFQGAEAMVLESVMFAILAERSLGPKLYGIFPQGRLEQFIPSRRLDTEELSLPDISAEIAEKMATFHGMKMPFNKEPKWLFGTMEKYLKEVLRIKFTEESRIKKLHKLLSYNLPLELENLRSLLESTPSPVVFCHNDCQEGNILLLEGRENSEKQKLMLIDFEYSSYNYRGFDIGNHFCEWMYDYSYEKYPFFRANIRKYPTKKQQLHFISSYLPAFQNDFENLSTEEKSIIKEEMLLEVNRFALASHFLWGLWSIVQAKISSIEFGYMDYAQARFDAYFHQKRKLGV
T2 sequence (Q9Y259 2-395): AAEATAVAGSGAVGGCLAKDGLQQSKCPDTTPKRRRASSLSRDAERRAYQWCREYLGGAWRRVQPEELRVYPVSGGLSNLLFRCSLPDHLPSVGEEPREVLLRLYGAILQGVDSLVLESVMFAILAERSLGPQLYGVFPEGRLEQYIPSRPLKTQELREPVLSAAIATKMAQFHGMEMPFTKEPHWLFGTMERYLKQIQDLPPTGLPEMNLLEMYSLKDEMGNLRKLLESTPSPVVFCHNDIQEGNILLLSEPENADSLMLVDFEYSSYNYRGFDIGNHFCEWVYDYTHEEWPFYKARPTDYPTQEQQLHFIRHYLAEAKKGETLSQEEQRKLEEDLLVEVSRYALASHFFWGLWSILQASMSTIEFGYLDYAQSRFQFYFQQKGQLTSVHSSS

Compound	IC50 [1, 3] [µM]	IC50 [2] [µM]	IC50 [1] [µM]
COc1cccc2sc(NC(=O)[C@H]3CC[C@@H](n4cnc5c(N)nc(F)nc54)CC3)nc12 [cpd 126, cis-4-(6-amino-2-fluoro-9H-purin-9-yl)-N-(4-methoxy-1,3-benzothiazol-2-yl)cyclohexanecarboxamide]	0.031	> 10	–
COc1cccc(NC(=O)[C@H]2CC[C@@H](n3cnc4c(N)nc(-c5ccc(C(=O)Nc6ccc(CN7CCC(N(C)C)CC7)cc6)cc5)nc43)CC2)c1 [cpd 33, 4-(6-amino-9-{cis-4-[(3-methoxyphenyl)carbamoyl]cyclohexyl}-9H-purin-2-yl)-N-(4-{[4-(dimethylamino)piperidin-1-yl]methyl}phenyl)benzamide]	0.021	4.57	–
Nc1nc(Cl)nc2c1ncn2[C@H]1CC[C@@H](C(=O)Nc2nc3c(s2)[C@H]2CC[C@@H](C3)N2)CC1 [cpd 189, cis-4-(6-amino-2-chloro-9H-purin-9-yl)-N-[(5S,8R)-5,6,7,8-tetrahydro-4H-5,8-epiminocyclohepta[d][1,3]thiazol-2-yl]cyclohexanecarboxamide hydrochloride]	–	> 10	0.027
CC(C)(C)OC(=O)N1[C@H]2CC[C@@H]1c1sc(NC(=O)[C@H]3CC[C@@H](n4cnc5c(N)nc(Cl)nc54)CC3)nc1C2 [cpd 187, tert-butyl (5S,8R)-2-({[cis-4-(6-amino-2-chloro-9H-purin-9-yl)cyclohexyl]carbonyl}amino)-5,6,7,8-tetrahydro-4H-5,8-epiminocyclohepta[d][1,3]thiazole-9-carboxylate]	–	5.63	0.029
Cc1csc(NC(=O)[C@H]2CC[C@@H](n3cnc4c(N)nc(C(N)=O)nc43)CC2)n1 [cpd 146, 6-amino-9-{cis-4-[(4-methyl-1,3-thiazol-2-yl)carbamoyl]cyclohexyl}-9H-purine-2-carboxamide]	0.073	> 10	–
Cc1csc(NC(=O)[C@H]2CC[C@@H](n3cnc4c(N)nccc43)CC2)n1 [cpd 204, cis-4-(4-amino-1H-imidazo[4,5-c]pyridin-1-yl)-N-(4-methyl-1,3-thiazol-2-yl)cyclohexanecarboxamide]	1.81	> 10	–
Nc1nc(Cl)nc2c1ncn2[C@H]1CC[C@@H](C(=O)Nc2nc3c(s2)CCCC3)CC1 [cpd 205, cis-4-(6-amino-2-chloro-9H-purin-9-yl)-N-(4,5,6,7-tetrahydro-1,3-benzothiazol-2-yl)cyclohexanecarboxamide]	0.015	5.2	–
COc1cccc(NC(=O)[C@H]2CC[C@@H](n3cnc4c(N)nc(-c5ccc(C(=O)Nc6ccc(CN7CCN(C)CC7)cc6)cc5)nc43)CC2)c1 [cpd 29, 4-(6-amino-9-{cis-4-[(3-methoxyphenyl)carbamoyl]cyclohexyl}-9H-purin-2-yl)-N-{4-[(4-methylpiperazin-1-yl)methyl]phenyl}benzamide]	0.257	1.88	–
C#Cc1nc(N)c2ncn([C@H]3CC[C@@H](C(=O)Nc4nc(C)cs4)CC3)c2n1 [cpd 77, cis-4-(6-amino-2-ethynyl-9H-purin-9-yl)-N-(4-methyl-1,3-thiazol-2-yl)cyclohexanecarboxamide]	0.018	5.97	–
Cc1csc(NC(=O)[C@H]2CC[C@@H](n3cnc4c(N)nc(-c5ccncc5)nc43)CC2)n1 [cpd 81, cis-4-[6-amino-2-(pyridin-4-yl)-9H-purin-9-yl]-N-(4-methyl-1,3-thiazol-2-yl)cyclohexanecarboxamide]	0.125	> 10	–
C#Cc1nc(N)c2ncn([C@H]3CC[C@@H](C(=O)Nc4nc5c(OC)cccc5s4)CC3)c2n1 [cpd 119, cis-4-(6-amino-2-ethynyl-9H-purin-9-yl)-N-(4-methoxy-1,3-benzothiazol-2-yl)cyclohexanecarboxamide]	0.021	7.7	–
COc1cccc(NC(=O)[C@H]2CC[C@@H](n3cnc4c(N)nc(C#CCO)nc43)CC2)c1 [cpd 60, cis-4-[6-amino-2-(3-hydroxyprop-1-yn-1-yl)-9H-purin-9-yl]-N-(3-methoxyphenyl)cyclohexanecarboxamide]	0.854	> 10	–
Nc1nc(Cl)nc2c1ncn2[C@H]1CC[C@@H](C(=O)Nc2nnc(C(F)(F)F)s2)CC1 [cpd 64, cis-4-(6-amino-2-chloro-9H-purin-9-yl)-N-[5-(trifluoromethyl)-1,3,4-thiadiazol-2-yl]cyclohexanecarboxamide]	0.196	> 10	–
Cc1cccc(NC(=O)[C@H]2CC[C@@H](n3cnc4c(N)nc(-c5ccncc5)nc43)CC2)c1 [cpd 50, cis-4-[6-amino-2-(pyridin-4-yl)-9H-purin-9-yl]-N-(3-methylphenyl)cyclohexanecarboxamide]	0.311	> 10	–
C#Cc1nc(N)c2ncn([C@H]3CC[C@@H](C(=O)Nc4cccc(OC)c4)CC3)c2n1 [cpd 45, cis-4-(6-amino-2-ethynyl-9H-purin-9-yl)-N-(3-methoxyphenyl)cyclohexanecarboxamide]	0.195	4.98	–

Further lines, with some results ahead:

IC50 [1, 3] [µM]	IC50 [2] [µM]	Compound	IC50 [1] [µM]
0.097	> 10	Nc1nc(Cl)nc2c1ncn2[C@H]1CC[C@@H](C(=O)Nc2nc3ccncc3s2)CC1 [cpd 138, cis-4-(6-amino-2-chloro-9H-purin-9-yl)-N-([1,3]thiazolo[5,4-c]pyridin-2-yl)cyclohexanecarboxamide hydrochloride]	–
0.034	4.02	Nc1nc(Cl)nc2c1ncn2[C@H]1CC[C@@H](C(=O)Nc2nc3ccc(CC(=O)O)cc3s2)CC1 [cpd 176, [2-({[cis-4-(6-amino-2-chloro-9H-purin-9-yl)cyclohexyl]carbonyl}amino)-1,3-benzothiazol-6-yl]acetic acid]	–
0.065	7.04	Nc1nc2ccc(OC(=O)[C@H]3CC[C@@H](n4cnc5c(N)nc(Cl)nc54)CC3)cc2s1 [cpd 159, 2-amino-1,3-benzothiazol-6-yl cis-4-(6-amino-2-chloro-9H-purin-9-yl)cyclohexanecarboxylate]	–
0.023	6.8	Nc1nc(Cl)nc2c1ncn2[C@H]1CC[C@@H](C(=O)Nc2nc3ccc(OC(F)F)cc3s2)CC1 [cpd 180, cis-4-(6-amino-2-chloro-9H-purin-9-yl)-N-[6-(difluoromethoxy)-1,3-benzothiazol-2-yl]cyclohexanecarboxamide]	–
0.341	> 10	COc1cccc(C(=O)N[C@H]2CC[C@@H](n3cnc4c(N)nc(Cl)nc43)CC2)c1 [cpd 144, N-[cis-4-(6-amino-2-chloro-9H-purin-9-yl)cyclohexyl]-3-methoxybenzamide]	–
0.054	> 10	COc1nc(N)c2ncn([C@H]3CC[C@@H](C(=O)Nc4nc5ccc(F)cc5s4)CC3)c2n1 [cpd 170, cis-4-(6-amino-2-methoxy-9H-purin-9-yl)-N-(6-fluoro-1,3-benzothiazol-2-yl)cyclohexanecarboxamide]	–
0.061	> 10	Nc1nc(Cl)nc2c1ncn2[C@H]1CC[C@@H](C(=O)Nc2nccs2)CC1 [cpd 72, cis-4-(6-amino-2-chloro-9H-purin-9-yl)-N-(1,3-thiazol-2-yl)cyclohexanecarboxamide]	–
0.306	6.09	COc1cccc(NC(=O)N[C@H]2CC[C@@H](n3cnc4c(N)nc(Cl)nc43)CC2)c1 [cpd 197, 1-[cis-4-(6-amino-2-chloro-9H-purin-9-yl)cyclohexyl]-3-(3-methoxyphenyl)urea]	–
